Laboratory results published in patent publication US20230020329A1, “Annelated 9-hydroxy-1,8-dioxo-1,3,4,8-tetrahydro-2H-pyrido[1,2-a]pyrazine-7-carboxamides as HIV integrase inhibitors, methods of preparation and application thereof” (priority 2019, published 2023).
≈ marks a conversion by molar mass, not a printed value. Read-outs that look alike come from different tables or passages of the source.

How the values were obtained:
HIV-1 (IIIB strain) = test: Anti-HIV cytoprotection assay (XTT), HIV-1 IIIB in CEM-SS cells; assay type: cell-based; settings: CEM-SS cell line, read-out: Inhibitory activity (EC50) against HIV-1 (IIIB strain)
Method in brief: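 CEM-SS cells infected with a pre-titrated virus dose killing 85–95% of cells by day 6; protection from HIV-induced death read by XTT formazan. Compounds screened in triplicate at 30 and 10 nM, actives retested at 2 nM; AZT six-concentration curve on each plate as positive control.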

[1] = Thermodynamic (shake-flask) solubility; assay type: physicochemical; settings: for solubility at 24 h: thermodynamic from solid
Method: The test compound of general formula 1 or 2 (2 mg) was weighed into a glass vial. The pION universal buffer (0.5 ml) with pH 7.4 or deionized water was added to appropriate vials. The vials were tightly closed with a lid, placed on a rotating shaker, and incubated for 24 hours to balance the solution and the solid phase at the saturation point. Each resulting solution (200 μl) was taken (in duplicate) from the vials, placed in a 96-well MultiScreen Solubility Filter Plate (Millipore), and filtered using vacuum ([…]) into a polypropylene plate with a U-shaped bottom. If necessary, the filtrates were diluted with an appropriate buffer (water). Then, 120 μl of the filtarate (or a diluted filtrate) was transferred to a 96-well plate with a UV-transparent bottom and 60 μl/well of acetonitrile and 20 μl/well of DMSO were added and thoroughly mixed with a multichannel pipette (acetonitrile and DMSO were added to obtain a required composition of calibration standards, as described below). The optical density of the resulting solutions was measured on a multifunction Infinite 200 PRO plate reader in the wavelength range from 240 nm to 400 nm in steps of 10 nm. The value of ODλ for solutions was assessed at a wavelength chosen for plotting a calibration curve.
The concentration of a substance in the solution after the solubility test was evaluated using a calibration curve. A stock solution in DMSO with a concentration of 2 mg/ml was prepared from a separate sample. […] The range of final concentrations of the calibration curve was 0.2; 0.1; 0.05; 0.025; 0.0125; 0.00625, and 0 mg/ml. Calibration solutions were prepared in a 96-well UV plate as follows: 20 μl of a 10-fold stock solution in DMSO, 60 μl of acetonitrile, and 120 μl of the appropriate buffer were added to the well and stirred. The optical density of the resulting solutions was measured on a multifunction Infinite 200 PRO plate reader in the wavelength range from 240 nm to 400 nm with a step of 10 nm. The optimal wavelength typically corresponding to the absorption maximum was chosen, and a linear dependence of OD at a given wavelength on the concentration of the compound was obtained.
The concentration of the compound in the filtrate after the solubility test was calculated according to the formula:
shake-flask solubility=(ODλfiltrate−ODλblank)/(slope×1.67×filtrate dilution)
wherein slope means the slope of the calibration curve; 1.67 is the filtrate acetonitrile+DMSO dilution ratio; filtrate dilution is an additional dilution of the filtrate, if applicable.

HIV = settings: depending on the method of analysis; read-out: Inhibitory activity EC50 (literature); cited from earlier work
[2] = tested on: HIV-1 (NL4.3 strain) carrying the GFP reporter gene (NL4.3-GFP); test: HIV-1 NL4.3-GFP infection of SupT1 cells; assay type: cell-based; settings: Human immunodeficiency virus 1, SUP-T1, read-out: Inhibitory activity (EC50) of HIV-1 (NL4.3 strain) carrying the GFP reporter gene
Method: 6. Inhibitory Activity of HIV-1 (NL4.3 Strain) Carrying the GFP Reporter Gene (NL4.3-GFP) in the SuPT1 Cell Line.
The evaluation was done by RetroVirox Inc. (San Diego, Calif., USA). SupT1 cells were infected with the HIV NL4.3 strain carrying the green fluorescent protein gene (NL4.3-GFP). The virus sample was produced by transfection of 293T cells with proviral DNA. The sample was frozen 48 hours after transfection and stored until use. To enhance the efficiency of infection, a suspension of SupT1 cells was precipitated from the infectious mixture by centrifugation. Test substances were added to the cells immediately before adding the virus. After 2 hours of incubation, the infectious mixture was replaced with a fresh culture medium containing test samples. The effectiveness of the infection was determined after 45 hours by counting the percentage of fluorescent cells in comparison with uninfected cell cultures. The cytotoxicity of the test compounds was determined in parallel on the same, but not infected, SupT1 cell line using the XTT reagent. Serial tenfold dilutions of the samples (starting from 10 μM when determining antiviral activity or from 100 μM for determining cytotoxicity). As a negative control, 0.1% DMSO was used. The values of EC50 were calculated. The quality of the tests was determined using the following controls: signal-to-noise ratio, integrase inhibitor raltegravir (1 μM), and test reproducibility.

[3] = Human immunodeficiency virus 1, IIIB, CEM-SS
[4] = aqueous buffer, pION universal buffer pH 7.4, 24 h, read-out: Solubility, pH 7.4, value
[5] = deionized water, 24 h, read-out: Solubility, water, value
[6] = deionized water, water, read-out: Solubility in water

| Compound | EC50 (HIV-1 (IIIB strain); [3]) [nM] | solubility at 24 h [1, 4] [µg/mL] | solubility at 24 h [1, 5] [µg/mL] | EC50 (HIV-1 (IIIB strain)) [nM] | Solubility, water, value ([1]; deionized water, 24 h) [µg/mL] | solubility at 24 h [1, 6] [µg/mL] | EC50 (HIV) [nM] | EC50 [2] [nM] |
| --- | --- | --- | --- | --- | --- | --- | --- | --- |
| Cc1cc(CNC(=O)c2cn3c(c(O)c2=O)C(=O)N2[C@@H](C)CO[C@@H]2C3)c2ccccc2n1 [Compound 1.1.51, (3S,11aR)-6-hydroxy-3-methyl-N-(2-methylquinolin-4-ylmethyl)-5,7-dioxo-2,3,5,7,11,11a-hexahydro[1,3]oxazolo[3,2-a]pyrido[1,2-d]pyrazine-8-carboxamide] | 2 to 10 | 8 (≈ 18.4 µM) | 31 (≈ 71.4 µM) | – | – | – | – | – |
| C[C@H]1CO[C@@H]2Cn3cc(C(=O)NCc4ccc(F)nc4F)c(=O)c([O-])c3C(=O)N12.[Na+] [Compound 1.1.20, Sodium (3S,11aR)-8-({[(2,6-difluoropyridin-3-yl)methyl]amino}carbonyl)-3-methyl-5,7-dioxo-2,3,5,7,11,11a-hexahydro[1,3]oxazolo[3,2-a]pyrido[1,2-d]pyrazin-6-olate] | – | 1680 | – | 4.8 | 2679 | 2680 | – | – |
| C[C@H]1CO[C@@H]2Cn3cc(C(=O)NCc4ccc5nonc5c4)c(=O)c(O)c3C(=O)N12 [Compound 1.1.48, (3S,11aR)-N-(2,1,3-benzoxadiazol-5-ylmethyl)-6-hydroxy-3-methyl-5,7-dioxo-2,3,5,7,11,11a-hexahydro[1,3]oxazolo[3,2-a]pyrido[1,2-d]pyrazine-8-carboxamide] | 0.43 | 3.2 (≈ 7.78 µM) | – | – | 2.85 (≈ 6.93 µM) | 2.85 (≈ 6.93 µM) | – | – |
| C[C@@H]1CCO[C@H]2Cn3cc(C(=O)NCc4ccc(F)cc4F)c(=O)c(O)c3C(=O)N12 [DTG, Dolutegravir] | – | – | – | – | – | – | 1.1 to 7.4 | – |
| C[C@H]1CO[C@@H]2Cn3cc(C(=O)NCc4cccc5cccnc45)c(=O)c(O)c3C(=O)N12 [Compound 1.1.54, (3S,11aR)-6-hydroxy-3-methyl-N-(quinolin-8-ylmethyl)-5,7-dioxo-2,3,5,7,11,11a-hexahydro[1,3]oxazolo[3,2-a]pyrido[1,2-d]pyrazine-8-carboxamide] | 2.17 | 6 (≈ 14.3 µM) | 10 (≈ 23.8 µM) | – | – | – | – | – |
| C[C@H]1CO[C@@H]2Cn3cc(C(=O)NCc4nccc5ccccc45)c(=O)c(O)c3C(=O)N12 [Compound 1.1.55, (3S,11aR)-6-hydroxy-N-(isoquinolin-1-ylmethyl)-3-methyl-5,7-dioxo-2,3,5,7,11,11a-hexahydro[1,3]oxazolo[3,2-a]pyrido[1,2-d]pyrazine-8-carboxamide] | 2 to 10 | – | – | – | – | – | – | 14.5 |
| Cc1cc2c(cc1CNC(=O)c1cn3c(c(O)c1=O)C(=O)N1[C@@H](C)CO[C@@H]1C3)OCCO2 [Compound 1.1.36, (3S,11aR)-6-hydroxy-3-methyl-N-[(7-methyl-2,3-dihydro-1,4-benzodioxin-6-yl)methyl]-5,7-dioxo-2,3,5,7,11,11a-hexahydro[1,3]oxazolo[3,2-a]pyrido[1,2-d]pyrazine-8-carboxamide] | 10 to 30 | 70 (≈ 159 µM) | 56 (≈ 127 µM) | – | – | – | – | – |
| C[C@@H]1CCO[C@H]2Cn3cc(C(=O)NCc4ccc(F)nc4F)c(=O)c(O)c3C(=O)N12 [Compound 1.2.1, (4R,12aS)-7-hydroxy-N-[(2,6-difluoropyridin-3-yl)methyl]-4-methyl-6,8-dioxo-3,4,6,8,12,12a-hexahydro-2H-pyrido[1′,2′:4,5]pyrazino[2,1-b][1,3]oxazine-9-carboxamide] | 5.15 | 80 (≈ 190 µM) | 57 (≈ 136 µM) | – | – | – | – | – |
| C[C@H]1CO[C@@H]2Cn3cc(C(=O)NCc4ncccc4F)c(=O)c(O)c3C(=O)N12 [Compound 1.1.16, (3S,11aR)-6-hydroxy-3-methyl-N-[(3-fluoropyridin-2-yl)methyl]-5,7-dioxo-2,3,5,7,11,11a-hexahydro[1,3]oxazolo[3,2-a]pyrido[1,2-d]pyrazine-8-carboxamide] | 10 to 30 | – | – | – | – | – | – | 10.5 |

Continued, in another order:

| EC50 (HIV-1 (IIIB strain); [3]) [nM] | solubility at 24 h [1, 4] [µg/mL] | solubility at 24 h [1, 5] [µg/mL] | Compound | EC50 (HIV-1 (IIIB strain)) [nM] | Solubility, water, value ([1]; deionized water, 24 h) [µg/mL] | solubility at 24 h [1, 6] [µg/mL] | EC50 (HIV) [nM] | EC50 [2] [nM] |
| --- | --- | --- | --- | --- | --- | --- | --- | --- |
| 0.59 | 318 (≈ 719 µM) | 318 (≈ 719 µM) | C[C@H]1CO[C@@H]2Cn3cc(C(=O)NCc4nn(C)c(Cl)c4Cl)c(=O)c(O)c3C(=O)N12 [Compound 1.1.7, (3S,11aR)-6-hydroxy-N-[(4,5-dichloro-1-methyl-1H-pyrazol-3-yl)methyl]3-methyl-5,7-dioxo-2,3,5,7,11,11a-hexahydro[1,3]oxazolo[3,2-a]pyrido[1,2-d]pyrazine-8-carboxamide] | – | – | – | – | – |
| 1.93 | 21 (≈ 49.2 µM) | 21 (≈ 49.2 µM) | C[C@H]1CO[C@@H]2Cn3cc(C(=O)NCc4nc5ccccc5s4)c(=O)c(O)c3C(=O)N12 [Compound 1.1.37, (3S,11aR)-N-(1,3-benzothiazol-2-ylmethyl)-6-hydroxy-3-methyl-5,7-dioxo-2,3,5,7,11,11a-hexahydro[1,3]oxazolo[3,2-a]pyrido[1,2-d]pyrazine-8-carboxamide] | – | – | – | – | – |
| 1.44 | 24 (≈ 63.9 µM) | 33 (≈ 87.9 µM) | C[C@H]1CO[C@@H]2Cn3cc(C(=O)NCc4cccs4)c(=O)c(O)c3C(=O)N12 [Compound 1.1.1, (3S,11aR)-6-hydroxy-3-methyl-5,7-dioxo-N-(2-thienylmethyl)-2,3,5,7,11,11a-hexahydro[1,3]oxazolo[3,2-a]pyrido[1,2-d]pyrazine-8-carboxamide] | – | – | – | – | – |
| 10 to 30 | 91 (≈ 234 µM) | 78 (≈ 201 µM) | C[C@H]1CO[C@@H]2Cn3cc(C(=O)NCc4ccncc4F)c(=O)c(O)c3C(=O)N12 [Compound 1.1.23, (3S,11aR)-6-hydroxy-3-methyl-N-[(3-fluoropyridin-4-yl)methyl]-5,7-dioxo-2,3,5,7,11,11a-hexahydro[1,3]oxazolo[3,2-a]pyrido[1,2-d]pyrazine-8-carboxamide] | – | – | – | – | – |
| 2.63 | 380 (≈ 935 µM) | 347 (≈ 854 µM) | C[C@H]1CO[C@@H]2Cn3cc(C(=O)NCc4c(F)cncc4F)c(=O)c(O)c3C(=O)N12 [Compound 1.1.24, (3S,11aR)-6-hydroxy-N-[(3,5-difluoropyridin-4-yl)methyl]-3-methyl-5,7-dioxo-2,3,5,7,11,11a-hexahydro[1,3]oxazolo[3,2-a]pyrido[1,2-d]pyrazine-8-carboxamide] | – | – | – | – | – |
